The text below walks through data of patent US20110002995A1, “PHARMACEUTICAL COMPOSITION FOR THE TREATMENT AND PREVENTION OF CARDIAC DISEASE” (MAZENCE INC., priority 2007, published 2011).

For experiment [1], the system named is TAC-induced heart hypertrophy. In words: Changes of heart size in heart hypertrophy model (Experimental Example 4). Format: in vivo, C57BL/6J male mice. The following applies: 150 mg/kg orally for two weeks from one week after TAC, heart excised three weeks after TAC, FIG. 15. An excerpt:
(§1) The thorax was incised and the thymus was removed.
In order to examine changes of heart size in response to the administration of MB660, experimental animals were divided into four groups as given in Table 4 below:
One week after TAC treatment, animals were orally given MB660 for two weeks. Three weeks after TAC treatment, animals were sacrificed and the heart was excised, followed by size examination.

For experiment [2], the system named is cardiomyocytic mitochondria, TAC-induced heart hypertrophy. The experiment in a line: Mitochondrial changes of cardiomyocytes in heart hypertrophy model (Experimental Example 5). Type of experiment: in vivo, C57BL/6J mice. Conditions: orally for 4 weeks after induction of heart hypertrophy (2 weeks after TAC), transmission electron microscope, FIG. 16. An excerpt:
(§2) Animals were orally given test samples for 4 weeks after induction of heart hypertrophy (2 weeks after TAC treatment) and heart failure (5 weeks after TAC treatment). The left ventricular myocardial tissues of animals were fixed in 2.5% glutaraldehyde to prepare tissue sections, and mitochondrial morphological changes were examined under a transmission electron microscope.
(§3) In C57BL/6J mice with TAC-induced heart hypertrophy and heart failure, alterations in cardiomyocytic mitochondria in response to the administration of MB660 were observed.

For experiment [3], the system named is TAC-induced heart failure. In words: Inhibitory effect on heart failure, TAC model (Experimental Example 1). Type of experiment: in vivo, C57BL/6J male mice. Here is the method:
(§4) 8-week-old C57BL/6J male mice (n=40, 20-23 g, SLC, Japan) were purchased and subjected to transverse aortic constriction (TAC).
as §1
(§5) 5 weeks after the operation of TAC for the heart failure model, a difference of a fractional shortening (F.S) value (%) with the control group was confirmed using echocardiogram, and the degree of heart failure induction and therapeutic effects were then determined.
(§6) Further, left ventricular end-diastolic and systolic diameters were measured according to the standard method of the American Society for Echocardiography. Fractional shortening (%) which is an indicator of the ventricular contractility is calculated according to the following equation.
(§7) F.S=(left ventricular end-diastolic diameter)−(left ventricular end-systolic diameter)/left ventricular end-diastolic diameter
(§8) Among compounds of Formula 1, inhibitory effects of 7,8-dihydro-2,2-dimethyl-2H-naphtho(2,3-b)dihydropyran-7,8-dione (hereinafter, referred to as “MB660”) on heart hypertrophy and heart failure were examined.
(§9) 2 days after TAC treatment, animals were given test samples. Induction of heart hypertrophy was carried out over 2 weeks after TAC treatment. Induction of heart failure was carried out over 5 weeks after TAC treatment.

The subject of experiment [4] is cardiomyocytic mitochondria, TAC-induced heart failure. In words: Mitochondrial changes of cardiomyocytes in heart failure model (Experimental Example 5). Format: in vivo, C57BL/6J mice. The following applies: orally for 4 weeks after induction of heart failure (5 weeks after TAC), transmission electron microscope, FIG. 17.
Source text: as §2, §3

Experiment [5] has as its system TAC-induced heart failure. In words: Reversal of heart failure, TAC model (Experimental Example 2). Type of experiment: in vivo, C57BL/6J male mice. Conditions: 150 mg/kg for 4 weeks, starting 5 weeks after TAC. Here is the method:
as §4, §1, §5, §6, §7
(§10) In order to measure effects of MB660 on the reversal of heart hypertrophy and heart failure, the experiment was carried out as follows.
(§11) After induction of heart hypertrophy (2 weeks after TAC treatment) and heart failure (5 weeks after TAC treatment), animals were given test samples for 4 weeks.

For experiment [6], the system named is TAC-induced heart hypertrophy. In words: Inhibitory effect on heart hypertrophy, TAC model (Experimental Example 1). Format: in vivo, C57BL/6J male mice. The method, then:
as §4, §1, §5, §6, §7, §8, §9

The subject of experiment [7] is TAC-induced heart hypertrophy. The following applies: FIG. 14.
Source text: For the operation of TAC, C57BL/6 male mice were anesthetized with an intraperitoneal injection of a liquid anesthetic (ketamine:xylazine=20:1, kg/ml), and a 22-gauge IV catheter needle was placed into the trachea, followed by connection with a ventilator (Harvard Apparatus) for artificial forcible respiration. The thorax was incised and the thymus was removed. Following the removal of the thymus, the transverse aorta between the right subclavian artery and the left subclavian artery was banded (7-0, silk) with an overlaying blunted 27-gauge needle, and then the needle was quickly removed to create a defined constriction. The thorax was sutured with (5-0) silk to complete the surgery, and respiration of animals was then confirmed.
A ratio of heart weight (HW) to body weight (BW) (HW/BW ratio) and a ratio of heart weight (HW) to tibia length (HW/TL ratio) were respectively estimated using echocardiogram.
2 days after the operation of TAC, animals were orally given test samples for 2 weeks.
For experiment [8], the system named is TAC-induced heart hypertrophy. The experiment in a line: Reversal of heart hypertrophy, TAC model (Experimental Example 2). Conditions: 150 mg/kg for 4 weeks, starting 2 weeks after TAC. Format: in vivo, C57BL/6J male mice. The method, then:
as §4, §1, §5, §6, §7, §10, §11

A value given as a limit tells only on which side of the number the result lay.

On to `CC1(C)CCc2cc3c(cc2O1)=CC(=O)C(=O)C=3` [MB660, 7,8-dihydro-2,2-dimethyl-2H-naphtho(2,3-b)dihydropyran-7,8-dione], for which the “heart size, TAC group vs non-administered TAC control” value in experiment [1] is recorded as “significant decrease of the heart size”. Also, the “mitochondrial function/morphology of cardiomyocytes” value in experiment [2] and in experiment [4] was “returned to the original condition” throughout. Further, in experiment [3] (TAC MB(+), 150 mg/kg, given from 2 days after TAC, heart failure induced over 5 weeks, FIG. 4), the “HW/BW ratio vs non-MB660 treated group” value is listed as “significantly low values”. In experiment [3] (TAC MB(+), 150 mg/kg, given from 2 days after TAC, heart failure induced over 5 weeks, FIG. 5), the “HW/TL ratio vs non-MB660 treated group” value was “significantly low values”. Moreover, the “fractional shortening vs non-MB660 treated group” value is listed as “significantly increased” in experiment [3] (echocardiogram, heart failure-induced model); “significant increase” in experiment [6] (echocardiogram, heart hypertrophy-induced model, FIG. 3); “significant increase” in experiment [8] (FIG. 9). Moreover, the “HW/BW ratio vs control group” value in experiment [5] (FIG. 10) is on record as “low values”. The “HW/TL ratio vs control group” value in experiment [5] (FIG. 11) is “low values”. Moreover, the “fractional shortening vs control group” value in experiment [5] (FIG. 12) is “significant increase”. For the same compound, the “HW/BW ratio vs non-MB660 treated TAC group” value in experiment [6] (TAC MB(+), 150 mg/kg, given from 2 days after TAC, hypertrophy induced over 2 weeks, FIG. 1) is reported as “significantly low value of heart hypertrophy”. In addition, the “HW/TL ratio vs non-MB660 treated TAC group” value in experiment [6] (TAC MB(+), 150 mg/kg, given from 2 days after TAC, hypertrophy induced over 2 weeks, FIG. 2) was “significantly low value of heart hypertrophy”. In experiment [7] (30, 60, 100, 150 mg/kg orally for 2 weeks from 2 days after TAC), the “HW/BW ratio vs control group (TAC)” value is reported as “significant decrease”. The “HW/BW ratio, dependence on dose” value in experiment [7] (30 to 150 mg/kg orally for 2 weeks) is on record as “generally decreased with an increasing dose”. In addition, the “HW/BW ratio at 60 mg compared to the group with 30 mg” value in experiment [7] (orally for 2 weeks) is “increased”. Further, the “HW/BW lower than the non-MB660 treated group” value in experiment [8] (FIG. 7) is at least 30%. In addition, in experiment [8] (FIG. 7), the HW/BW value is listed as 6.23. Moreover, the “HW/TL lower than the non-MB660 treated group” value in experiment [8] (FIG. 8) is recorded as “about 25%”. Besides, the HW/TL value in experiment [8] (FIG. 8) was 7.68.
